Test results: patent US11884686B2, “Chelate compounds” (priority 2016, dated 2024)

Assays:
[1] = In vivo 54Mn biodistribution study in rats; details: rat; for % ID retained activity, Brain / % ID retained activity, Bladder / % ID retained activity, Blood / % ID retained activity, Heart / % ID retained activity, Kidney / % ID retained activity, Liver / % ID retained activity, Lungs / % ID retained activity, Muscle / % ID retained activity, Olfactory Bulb / % ID retained activity, Skin / % ID retained activity, Spleen / % ID retained activity, Tibia/Fibula / % ID retained activity, Femur / % ID retained activity, Pituitary Gland: 7 days post single iv 0.62 mmol/kg, LoD 0.002% ID (Prior Art, Chelate 4), 0.005% ID (Chelate 3); for % ID retained activity, Brain: ~30 μCi 54Mn; for in vivo stability from biodistribution profile: 7 days post single iv administration
Description: ^54Mn labeled chelates for biodistribution studies were prepared using the following method. To a 3 mL glass vial fitted with a magnetic stir bar was added the respective manganese containing chelate (1 mg) and 1.0 M ammonium formate, pH=4 (0.5 mL) (pH=5 for prior art Mn Chelate). ^54MnCl2 in 1.0 M HCl (˜500 μCi) was then added and the resulting solution was heated at 40° C. for 16 h. The resulting solution was purified via preparative HPLC to remove unchelated Mn. The radioactive fraction was collected and evaporated to dryness in vacuo. The radioactive residue was taken up in water containing non-radioactive Mn chelate (0.310 M) such that ˜30 μCi of radioactivity was formulated in a dose of 0.620 mmol Mn/kg with an injection volume of 2 mL/kg.
The experimental protocol conformed to the Guide for the Care and Use of Laboratory Animals and was approved by the IACUC at General Electric Global Research (Niskayuna, NY). Female Sprague-Dawley rats (130-150 g; Charles River Laboratories; Massachusetts; USA) were housed in standard cages, provided with ad libitum access to standard commercial food and water, and were maintained on an alternating 12-hr light-dark cycle in rooms with controlled temperature and humidity. Prior to injection of ^54Mn labelled chelates, rats were anesthetized via inhaled 3% Isoflurane (Piramal, NDC 66794-013-25; EZ-Anesthesia EZ700 Isoflurane Vaporizer, S/N 107). The injection site was prepped with alcohol wipes and a temporary 27 Ga catheter (Surflo SROX2419V) was placed in a tail vein. 30 μCi (0.74 MBq) of ^54Mn labelled chelate formulated with respective non-radioactive Mn(II) based chelate was dosed at 0.620 mmol non-radioactive Mn chelate/kg at an injection volume of 2 m L/kg was injected at a rate of 1 mL/min. Following injection animals were individually housed in wire bottom cages lined with filter paper until first urine void was collected. The rats were then cohoused in standard long term caging. 7 days post injection, the animals were sacrificed by CO2 immersion and organs and tissues of interest were removed and assayed for radioactivity using a Wizard 2480 gamma counter (Perkin Elmer, Beaconsfield, UK).
Naïve rats (Charles River Laboratories; Massachusetts; USA) received a single dose of 0.620 mmol/kg (approximately 30 μCi, 0.740 MBq) of test item via tail vein by injection. Additionally, one group of animals received osmolality matched saline (concentrated NaCl for injection: APP Pharmaceuticals part #NDC 63323-187-30 Lot #6008656 mixed with Sterile Water for Injection: Hospira part #NDC 0409-7990-09 Lot #49-396-DKas) as negative control (Table 1). After sacrifice, the organs and tissues were removed and assayed for residual radioactivity (i.e. ^54Mn organ retention) 7 days post single administration.

[2] = Dissociation kinetics via Zn2+ transmetallation (T1 relaxation time); type: physicochemical; details: for nature of the kinetic dissociation curve, Zn2+ exchange: time dependent T1, 25° C., pH 5.1-5.7
Description: Kinetic inertness was evaluated at slightly acidic pH due to the slow rate of dissociation of the paramagnetic complex at physiological pH and to the potential hydrolysis of the metal ions at the concentrations used for the experiments and at pH values close to physiological.
The dissociation kinetics of Mn(II) based chelates (concentration 1 mM) of the invention was assessed via Zn^2+ transmetallation recording the time-dependent variation of the longitudinal relaxation time (i.e., T1). The assessment was completed in a set of experiments including for the prior art Mn Chelate different concentrations of competing metal ion (5, 10, 20, 40 equivalents of Zn^2+); at 25° C. and different pH (pH: 5.1; 5.4; 5.7). The dissociation kinetics for Mn Chelate 4 (concentration 1 mM) was assessed in the presence of 5 eq of Zn^2+ at 25° C. and pH 5.1 and 5.7. For both assessments, the reaction mixture contained 0.15 M NaCl and 50 mM N-methyl piperazin buffer (i.e., NMP). The longitudinal relaxation time changes were monitored at 1 MHz for the prior art Mn Chelate and at 0.01 MHz for Mn Chelate 4. Indeed, the release of the free Mn^2+ ion induced by Zn^2+ leads to a decrease of the relaxation time for both Mn(II) based chelates evaluated in all experimental conditions. […]
For any of the transmetallation experiments carried out with the prior art Mn Chelate (e.g., at different pH; different Zn^2+ or Cu^2+ concentration) it was evident that the variation of the relaxation rate T1 (for the Zn^2+-exchange; FIG. 4) or the variation of the UV-Vis absorbance (for the Cu^2+-exchange; FIG. 5) caused by competing metal ion was a “single phase” process better described as a mono-exponential function. […] The rate of dissociation described by kobs was calculated via equation (1) where [MnL]tot is the total concentration of Mn(II) based chelates and t is the observation time.

In the case of `CN(C[C@H](O)[C@@H](O)[C@H](O)[C@H](O)CO)C(=O)CCCN1CCN2Cc3cccc(n3)CN(CC1)C(CCC(=O)N(C)C[C@H](O)[C@@H](O)[C@H](O)[C@H](O)CO)C(=O)[O][Mn][O]C(=O)C2CCC(=O)N(C)C[C@H](O)[C@@H](O)[C@H](O)[C@H](O)CO` (some centres unmarked) [Mn Chelate 3], the “% ID retained activity, Brain” value [1] is reported as “within endogenous level variability and LOD”, the “% ID retained activity, Bladder” value [1] is reported as “≤LOD” and the “% ID retained activity, Blood” value [1] is reported as “≤LOD”. The “% ID retained activity, Heart” value [1] was “≤LOD”, the “% ID retained activity, Kidney” value [1] was 0.026 ± 0.005% ID and the “% ID retained activity, Liver” value [1] was 0.091 ± 0.017% ID. For the same molecule, the “% ID retained activity, Lungs” value [1] was “≤LOD”, the “% ID retained activity, Muscle” value [1] was “≤LOD” and the “% ID retained activity, Olfactory Bulb” value [1] was “≤LOD”. The “% ID retained activity, Skin” value [1] was “≤LOD”, the “% ID retained activity, Spleen” value [1] was “≤LOD” and the “% ID retained activity, Tibia/Fibula” value [1] was “≤LOD”. For the same molecule, the “in vivo stability from biodistribution profile” value [1] was “improved stability compared to the prior art Mn Chelate”.
In the case of `CN1CCN2Cc3cccc(n3)CN(CC1)C(CCC(=O)N(C)C[C@H](O)[C@@H](O)[C@H](O)[C@H](O)CO)C(=O)[O][Mn][O]C(=O)C2CCC(=O)N(C)C[C@H](O)[C@@H](O)[C@H](O)[C@H](O)CO` (some centres unmarked) [Mn Chelate 4], the “% ID retained activity, Bladder” value [1] is reported as “≤LOD”, the “% ID retained activity, Blood” value [1] is reported as “≤LOD” and the “% ID retained activity, Femur” value [1] is reported as “≤LOD”. For the same molecule, the “% ID retained activity, Heart” value [1] was “≤LOD”, the “% ID retained activity, Kidney” value [1] was 0.038 ± 0.017% ID and the “% ID retained activity, Liver” value [1] was 0.075 ± 0.011% ID. The “% ID retained activity, Lungs” value [1] was “≤LOD”, the “% ID retained activity, Muscle” value [1] was “≤LOD” and the “% ID retained activity, Olfactory Bulb” value [1] was “≤LOD”. For the same molecule, the “% ID retained activity, Pituitary Gland” value [1] was “≤LOD”, the “% ID retained activity, Skin” value [1] was “≤LOD” and the “% ID retained activity, Spleen” value [1] was “≤LOD”. The “% ID retained activity, Tibia/Fibula” value [1] was “≤LOD”, the “in vivo stability from biodistribution profile” value [1] was “improved stability compared to the prior art Mn Chelate” and the “kinetic inertness from conversion, Zn2+ transmetallation” value ([2]; FIG. 11, versus prior art Mn Chelate) was “superior kinetic inertness”. The “nature of the kinetic dissociation curve, Zn2+ exchange” value [2] was “biphasic behaviour”.
With `CN1CCN2CC(=O)[O][Mn][O]C(=O)CN(CC1)Cc1cccc(n1)C2` [Prior Art Mn Chelate, reference compound] the “% ID retained activity, Brain” value [1] was 0.007 ± 0.002% ID, the “% ID retained activity, Bladder” value [1] was “≤LOD” and the “% ID retained activity, Blood” value [1] was “≤LOD”. The “% ID retained activity, Femur” value [1] was 0.003 ± 0.001% ID, the “% ID retained activity, Heart” value [1] was “≤LOD” and the “% ID retained activity, Kidney” value [1] was 0.012 ± 0.002% ID. For the same molecule, the “% ID retained activity, Liver” value [1] was 0.072 ± 0.017% ID, the “% ID retained activity, Lungs” value [1] was “≤LOD” and the “% ID retained activity, Muscle” value [1] was “≤LOD”. For the same molecule, the “% ID retained activity, Olfactory Bulb” value [1] was “≤LOD”, the “% ID retained activity, Pituitary Gland” value [1] was “≤LOD” and the “% ID retained activity, Skin” value [1] was “≤LOD”. For the same molecule, the “% ID retained activity, Spleen” value [1] was “≤LOD”, the “% ID retained activity, Tibia/Fibula” value [1] was 0.002 ± 0.000% ID and the “nature of the kinetic dissociation curve, Zn2+ exchange” value [2] was “single phase”.
